Molecular target: T1, HGFR (His6-HGFR cytoplasmic domain) (Homo sapiens, UniProt P08581)
T1 construct: made in house; host or cells: Spodoptera frugiperda Sf9 insect cells (baculovirus, pFastBac-HT)
Experiment: Inhibitory activity against HGFR tyrosine kinase activity (HTRF)
Assay type: biochemical
Conditions: biotin-poly(GT), ATP, 30° C. 10 min, read-out: IC50 (concentration necessary to inhibit HGFR kinase activity by 50%)
Text: The cytoplasmic domain of HGFR (Genbank Accession No. J02958) is a 1.3 kb DNA fragment beginning with Lys974 and including a stop codon, and described by Park et al. (Proc. Natl. Acad. Sci. U.S.A. 84(18), 6379-6383, 1987). The DNA fragment was isolated from the human placental cDNA library (purchased from Clontech) by PCR (TaKaRa Ex Taq™ Kit, purchased from TaKaRa) using two kinds of primers (SEQ ID NO: 1, 5′-[…]-3′ and SEQ ID NO: 2, 5′-[…]-3′, purchased from Invitrogen). The DNA fragment was cloned into a baculovirus transplace vector (pFastBac™-HT (purchased from GIBCO BRL)) to produce a recombinant construct. The construct was transfected into insect cells (Spodoptera frugiperda 9 (Sf9)) to produce a solution of HGFR transfected baculovirus (preparation of a recombinant baculovirus can be found in the standard text (Bac-to-Bac Baculovirus Expression System (GIBCO BRL)). The cloning of the other receptor tyrosine kinases and preparation of the recombinant baculovirus solutions were performed using a cytoplasmic fragment starting from Lys791 (VEGFR2, Genbank Accession No. L04947), a cytoplasmic fragment starting from Lys398 (FGFR1, Genbank Accession No. X52833) and a cytoplasmic fragment starting from Lys558 (PDGFRβ, Genbank Accession No. M21616) in stead of HGFR in the above method. EGFR was purchased from Sigma (Production No. E-2645).
To the suspension of Sf9 cells (3×10^8 cells) in SF-900II medium (purchased from Invitrogen) containing 2% FBS was added a solution of HGFR transfected baculovirus above (4 ml), followed by a shaking culture at 27° C. for 48 hrs. The cells infected with the HGFR transfected baculovirus were centrifuged at 1,000 rpm, 4° C. for 5 min to remove the supernatant. The precipitated infected cells were suspended in 80 ml of ice-cold PBS, and centrifuged at 1,000 rpm, 4° C. for 5 min to remove the supernatant. The precipitated infected cells were suspended in 40 ml of ice-cold Lysis Buffer (50 mM Tris-HCl (pH 8.5), 5 mM 2-mercaptoethanol, 100 mM KCl, 1 mM PMSF and 1% (v/v) NP-40). The suspension was centrifuged at 12,000 rpm, 4° C. for 30 min to provide a supernatant.
The supernatant was loaded onto an Ni-NTA agarose column (3 ml, purchased from Qiagen) equilibrated with 30 ml of Buffer A (20 mM Tris-HCl (pH 8.5), 5 mM 2-mercaptoethanol, 500 mM KCl, 20 mM imidazole and 10% (v/v) glycerol). The column was washed with 30 ml of Buffer A, 6 ml of Buffer B (20 mM Tris-HCl (pH 8.5), 5 mM 2-mercaptoethanol, 1 M KCl, and 10% (v/v) glycerol) and 6 ml of Buffer A in this order. Then, the column was eluted with 6 ml of Buffer C (20 mM Tris-HCl (pH 8.5), 5 mM 2-mercaptoethanol, 100 mM KCl, 100 mM imidazole, and 10% (v/v) glycerol) to provide a fraction. The fraction was entrapped in a dialysis membrane (purchased from Spectrum Laboratories), dialyzed at 4° C. overnight with 1 L of dialysis buffer (20 mM Tris-HCl (pH 7.5), 10% (v/v) glycerol, 1 mM dithiothreitol, 0.1 mM Na3VO4 and 0.1 mM EGTA), and stored at −80° C. until used. An aliquot of the dialyzed fraction was subjected to SDS electrophoresis, and then a recombinant protein (His6-HGFR, the HGFR cytoplasmic domain fused with six histidine at the N terminus) detected at a molecular weight of about 60 kDa when stained with Coomassie Brilliant Blue, was determined with regard to protein content using BSA (purchased from Sigma) as a standard. The VEGFR2 cytoplasmic domain, the FGFR1 cytoplasmic domain, and the PDGFRβ cytoplasmic domain were fused with six histidine at the N terminus by the similar method to produce respective recombinant proteins (His6-VEGFR2, His6-FGFR1, and His6-PDGFRβ). […]

T1 sequence (P08581 956-1390 limits assumed): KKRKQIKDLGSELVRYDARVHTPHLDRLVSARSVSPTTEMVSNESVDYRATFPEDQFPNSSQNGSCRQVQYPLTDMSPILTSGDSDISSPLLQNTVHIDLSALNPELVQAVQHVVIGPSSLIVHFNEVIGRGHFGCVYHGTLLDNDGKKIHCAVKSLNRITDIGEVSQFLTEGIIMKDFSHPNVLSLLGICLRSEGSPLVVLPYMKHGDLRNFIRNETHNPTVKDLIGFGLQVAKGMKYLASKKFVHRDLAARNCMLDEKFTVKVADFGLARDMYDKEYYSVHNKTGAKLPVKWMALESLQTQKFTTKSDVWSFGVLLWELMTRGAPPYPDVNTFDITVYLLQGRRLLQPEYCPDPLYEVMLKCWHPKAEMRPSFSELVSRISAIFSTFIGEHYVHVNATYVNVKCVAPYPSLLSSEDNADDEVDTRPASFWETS

IC50	Compound
55 nM	Cc1cc(Oc2ccnc(NC(=O)N(C)C)c2)ccc1NC(=O)CC(=O)Nc1ccc(F)cc1 [Example 86, N-{4-[2-(3,3-Dimethylureido)pyridin-4-yloxy]-2-methylphenyl}-N′-(4-fluorophenyl)malonamide]
93 nM	CN1CCN(CCCN(C)C(=O)Nc2cc(Oc3ccc(NC(=O)CC(=O)Nc4ccc(F)cc4)c(F)c3)ccn2)CC1 [Example 93, N-[2-Fluoro-4-(2-{3-methyl-3-[3-(4-methylpiperazin-1-yl)propyl]ureido}pyridin-4-yloxy)phenyl]-N′-(4-fluorophenyl)malonamide]
200 nM	O=C(Cc1ccccc1)NC(=S)Nc1ccc(Oc2ccnc(NC(=O)N3CCC3)c2)cc1Cl [Example 100, Azetidine-1-carboxylic acid {4-[3-chloro-4-(3-phenylacetylthioureido)phenoxy]pyridin-2-yl}amide]
66 nM	CN1CCC(N(C)C(=O)Nc2cc(Oc3ccc(NC(=S)NC(=O)Cc4ccc(F)cc4)cc3F)ncn2)CC1 [Example 170, 3-[6-(2-Fluoro-4-{3-[2-(4-fluorophenyl)acetyl]thioureido}phenoxy)pyrimidin-4-yl]-1-methyl-1-(1-methylpiperidin-4-yl)urea]
64 nM	O=C(Cc1ccc(F)cc1)NC(=S)Nc1ccc(Oc2cc(NC(=O)N3CCC(N4CCC4)CC3)ncn2)c(F)c1 [Example 172, 4-(Azetidin-1-yl)piperidine-1-carboxylic acid [6-(2-fluoro-4-{3-[2-(4-fluorophenyl)acetyl]thioureido}phenoxy)pyrimidin-4-yl]amide]
74 nM	O=C(Cc1ccc(F)cc1)NC(=O)Nc1ccc(Oc2ccnc(NC(=O)N3CCC(N4CCCC4)CC3)c2)c(F)c1 [Example 174, 4-(Pyrrolidin-1-yl)piperidine-1-carboxylic acid [4-(2-fluoro-4-{3-[2-(4-fluorophenyl)acetyl]ureido}phenoxy)pyridin-2-yl]amide]
63 nM	O=C(Cc1ccc(F)cc1)NC(=O)Nc1ccc(Oc2ccnc(NC(=O)N3CCC(N4CCC4)CC3)c2)cc1F [Example 178, 4-(Azetidin-1-yl)piperidine-1-carboxylic acid [4-(3-fluoro-4-{3-[2-(4-fluorophenyl)acetyl]ureido}phenoxy)pyridin-2-yl]amide]
25 nM	CN(C)C[C@@H]1CCN(C(=O)Nc2cc(Oc3ccc(NC(=S)NC(=O)Cc4ccc(F)cc4)cc3F)ncn2)C1 [Example 179, 4-{[(3S)-3-(Dimethylaminomethyl)pyrrolidin-1-yl]carbonylamino}-6-(2-fluoro-4-{3-[2-(4-fluorophenyl)acetyl]thioureido}phenoxy)pyrimidine]
38 nM	CN(C)CC1CCN(C(=O)Nc2cc(Oc3ccc(NC(=S)NC(=O)Cc4ccc(F)cc4)cc3F)ncn2)CC1 [Example 180, 4-{[4-(Dimethylaminomethyl)piperidin-1-yl]carbonylamino}-6-(2-fluoro-4-{3-[2-(4-fluorophenyl)acetyl]thioureido}phenoxy)pyrimidine]
41 nM	CN(C)CCN1CCN(C(=O)Nc2cc(Oc3ccc(NC(=S)NC(=O)Cc4ccc(F)cc4)cc3F)ncn2)CC1 [Example 181, 4-{[4-(2-Dimethylaminoethyl)piperazin-1-yl]carbonylamino}-6-(2-fluoro-4-{3-[2-(4-fluorophenyl)acetyl]thioureido}phenoxy)pyrimidine]
70 nM	CN1CCN(C2CCN(C(=O)Nc3cc(Oc4ccc(NC(=S)NC(=O)Cc5ccccc5)cc4F)ccn3)CC2)CC1 [Example 182, 4-{2-Fluoro-4-[3-(2-phenylacetyl)thioureido]phenoxy}-2-{[4-(1-methylpiperazin-4-yl)piperidin-1-yl]carbonylamino}pyridine]
160 nM	CN(C)CCN1CCC(N(C)C(=O)Nc2cc(Oc3ccc(NC(=S)NC(=O)Cc4ccc(F)cc4)c(F)c3)ccn2)CC1 [Example 183]
130 nM	CN(C)CCN1CCC(N(C)C(=O)Nc2cc(Oc3ccc(NC(=S)NC(=O)Cc4ccc(F)cc4)cc3F)ncn2)CC1 [Example 184, 1-[1-(2-Dimethylaminoethyl)piperidin-4-yl]-3-[6-(2-fluoro-4-{3-[2-(4-fluorophenyl)acetyl]thioureido}phenoxy)pyrimidin-4-yl]-1-methylurea]
47 nM	O=C(Cc1ccccc1)NC(=S)Nc1ccc(Oc2ccnc(NC(=O)N3CCC(N4CCC(O)CC4)CC3)c2)c(F)c1 [Example 185, 4-{2-Fluoro-4-[3-(2-phenylacetyl)thioureido]phenoxy}-2-{[4-(4-hydroxypiperidin-1-yl)piperidin-1-yl]carbonylamino}pyridine]
130 nM	CN(C)CC1CCN(C(=O)Nc2cc(Oc3ccc(NC(=S)NC(=O)Cc4ccc(F)cc4)cc3)ccn2)CC1 [Example 188, 2-{[4-(Dimethylaminomethyl)piperidin-1-yl]carbonylamino}-4-(4-{3-[2-(4-fluorophenyl)acetyl]thioureido}phenoxy)pyridine]
110 nM	CN(C)C1CN(C2CCN(C(=O)Nc3cc(Oc4ccc(NC(=S)NC(=O)Cc5ccc(F)cc5)c(F)c4)ccn3)CC2)C1 [Example 189, 4-[3-(Dimethylamino)azetidin-1-yl]piperidine-1-carboxylic acid [4-(3-fluoro-4-{3-[2-(4-fluorophenyl)acetyl]thioureido}phenoxy)pyridin-2-yl]amide]
60 nM	O=C(Cc1ccc(F)cc1)NC(=S)Nc1ccc(Oc2ccnc(NC(=O)N3CCC(N4CCC(O)CC4)CC3)c2)cc1 [Example 190, 2-{[4-(4-Hydroxypiperidin-1-yl)piperidin-1-yl]carbonylamino}-4-(4-{3-[2-(4-fluorophenyl)acetyl]thioureido}phenoxy)pyridine]
57 nM	CN1CCN(C2CCN(C(=O)Nc3cc(Oc4ccc(NC(=S)NC(=O)Cc5ccc(F)cc5)cc4)ccn3)CC2)CC1 [Example 191, 4-(4-{3-[2-(4-Fluorophenyl)acetyl]thioureido}phenoxy)-2-{[4-(1-methylpiperazin-4-yl)piperidin-1-yl]carbonylamino}pyridine]
40 nM	CN1CCN(C2CCN(C(=O)Nc3cc(Oc4ccc(NC(=S)NC(=O)Cc5ccc(F)cc5)cc4F)ncn3)CC2)CC1 [Example 192, 4-(2-Fluoro-4-{3-[2-(4-fluorophenyl)acetyl]thioureido}phenoxy)-6-{[4-(1-methylpiperazin-4-yl)piperidin-1-yl]carbonylamino}pyrimidine]
52 nM	CN1CCC(N2CCN(C(=O)Nc3cc(Oc4ccc(NC(=S)NC(=O)Cc5ccc(F)cc5)cc4F)ncn3)CC2)CC1 [Example 193, 4-(2-Fluoro-4-{3-[2-(4-fluorophenyl)acetyl]thioureido}phenoxy)-6-{[4-(1-methylpiperidin-4-yl)piperazin-1-yl]carbonylamino}pyrimidine]
62 nM	CN(C)CCN1CCC(N(C)C(=O)Nc2cc(Oc3ccc(NC(=S)NC(=O)Cc4ccc(F)cc4)cc3)ccn2)CC1 [Example 194, 1-[1-(2-Dimethylaminoethyl)piperidin-4-yl]-3-[4-(4-{3-[2-(4-fluorophenyl)acetyl]thioureido}phenoxy)pyridin-2-yl]-1-methylurea]
57 nM	CN(C)C1CN(C2CCN(C(=O)Nc3cc(Oc4ccc(NC(=S)NC(=O)Cc5ccc(F)cc5)cc4)ccn3)CC2)C1 [Example 195, 4-[3-(Dimethylamino)azetidin-1-yl]piperidine-1-carboxylic acid [4-(4-{3-[2-(4-fluorophenyl)acetyl]thioureido}phenoxy)pyridin-2-yl]amide]

From patent US20070270421A1, “Novel pyridine Derivative and Pyrimidine Derivative (1)” (priority 2004, published 2007)
